For assay [1], the target named is Tyrosine-protein kinase CSK (Homo sapiens, UniProt P41240). Nature of the assay: Percentage CSK activity remaining in the presence of 3uM inhibitor.
The target of assay [2] is Homeodomain-interacting protein kinase 2 (Homo sapiens) (UniProt Q9H2X6). The assay can be described thus: Percentage HIPK2 activity remaining in the presence of 3uM inhibitor.
In assay [3] the target is T1, Serine/threonine-protein kinase Sgk1 (Homo sapiens) (UniProt O00141).
T1 sequence (whole entry): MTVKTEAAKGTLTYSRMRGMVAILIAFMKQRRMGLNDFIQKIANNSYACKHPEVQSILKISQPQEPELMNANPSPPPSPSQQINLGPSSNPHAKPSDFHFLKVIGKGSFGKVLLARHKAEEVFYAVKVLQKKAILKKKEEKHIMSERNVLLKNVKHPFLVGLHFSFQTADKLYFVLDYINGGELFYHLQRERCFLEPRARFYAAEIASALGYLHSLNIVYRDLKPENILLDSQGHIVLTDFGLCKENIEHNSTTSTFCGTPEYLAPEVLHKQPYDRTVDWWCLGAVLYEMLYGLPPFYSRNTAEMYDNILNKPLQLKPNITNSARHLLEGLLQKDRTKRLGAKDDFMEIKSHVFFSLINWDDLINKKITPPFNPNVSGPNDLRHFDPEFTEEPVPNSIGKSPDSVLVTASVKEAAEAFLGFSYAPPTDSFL
The assay can be described thus: Percentage SGK1 activity remaining in the presence of 3uM inhibitor.

Assay [4] is filed under the species Homo sapiens. The assay can be described thus: Percentage PHK activity remaining in the presence of 3uM inhibitor.
For assay [5], the target named is T2, Mitogen-activated protein kinase 15 (Homo sapiens) (UniProt Q8TD08).
T2 sequence (whole entry): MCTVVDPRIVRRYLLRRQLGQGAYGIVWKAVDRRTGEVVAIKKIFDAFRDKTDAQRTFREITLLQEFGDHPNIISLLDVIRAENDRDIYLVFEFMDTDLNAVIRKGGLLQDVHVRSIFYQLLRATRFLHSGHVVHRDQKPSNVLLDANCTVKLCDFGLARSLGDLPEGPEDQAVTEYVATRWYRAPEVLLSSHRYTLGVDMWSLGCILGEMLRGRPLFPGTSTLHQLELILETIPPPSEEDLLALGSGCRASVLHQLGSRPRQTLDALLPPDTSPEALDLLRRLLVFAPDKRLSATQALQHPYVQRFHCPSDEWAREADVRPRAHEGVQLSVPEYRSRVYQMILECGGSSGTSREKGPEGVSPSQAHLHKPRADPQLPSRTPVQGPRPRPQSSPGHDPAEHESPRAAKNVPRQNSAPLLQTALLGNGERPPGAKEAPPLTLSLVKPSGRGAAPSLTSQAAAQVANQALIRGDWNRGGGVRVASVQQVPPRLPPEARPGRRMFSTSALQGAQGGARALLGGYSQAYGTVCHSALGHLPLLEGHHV
The assay can be described thus: Percentage ERK8 activity remaining in the presence of 3uM inhibitor.

The target of assay [6] is T3, Eukaryotic elongation factor 2 kinase (Homo sapiens) (UniProt O00418).
T3 sequence (whole entry): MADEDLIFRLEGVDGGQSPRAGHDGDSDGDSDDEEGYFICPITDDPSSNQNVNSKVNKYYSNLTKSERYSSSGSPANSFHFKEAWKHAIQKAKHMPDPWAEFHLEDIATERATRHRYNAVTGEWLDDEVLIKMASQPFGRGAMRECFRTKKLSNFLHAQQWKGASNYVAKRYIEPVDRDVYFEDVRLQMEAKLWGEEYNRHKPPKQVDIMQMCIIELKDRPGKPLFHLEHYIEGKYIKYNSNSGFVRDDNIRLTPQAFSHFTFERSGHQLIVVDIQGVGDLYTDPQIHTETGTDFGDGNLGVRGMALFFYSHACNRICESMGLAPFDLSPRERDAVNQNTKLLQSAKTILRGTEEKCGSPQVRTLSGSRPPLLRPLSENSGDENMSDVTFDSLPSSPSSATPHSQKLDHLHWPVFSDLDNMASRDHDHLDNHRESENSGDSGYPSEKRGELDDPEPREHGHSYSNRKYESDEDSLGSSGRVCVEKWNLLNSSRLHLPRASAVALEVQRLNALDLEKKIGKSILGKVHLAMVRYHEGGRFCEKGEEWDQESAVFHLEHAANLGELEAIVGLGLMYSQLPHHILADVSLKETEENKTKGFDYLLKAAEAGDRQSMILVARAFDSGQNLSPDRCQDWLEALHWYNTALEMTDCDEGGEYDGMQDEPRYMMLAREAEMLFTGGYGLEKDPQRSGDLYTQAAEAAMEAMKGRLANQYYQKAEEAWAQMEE
The assay can be described thus: Percentage EF2K activity remaining in the presence of 2uM inhibitor.

For assay [7], the target named is T4, Mitogen-activated protein kinase 12 (Homo sapiens) (UniProt P53778).
T4 sequence (whole entry): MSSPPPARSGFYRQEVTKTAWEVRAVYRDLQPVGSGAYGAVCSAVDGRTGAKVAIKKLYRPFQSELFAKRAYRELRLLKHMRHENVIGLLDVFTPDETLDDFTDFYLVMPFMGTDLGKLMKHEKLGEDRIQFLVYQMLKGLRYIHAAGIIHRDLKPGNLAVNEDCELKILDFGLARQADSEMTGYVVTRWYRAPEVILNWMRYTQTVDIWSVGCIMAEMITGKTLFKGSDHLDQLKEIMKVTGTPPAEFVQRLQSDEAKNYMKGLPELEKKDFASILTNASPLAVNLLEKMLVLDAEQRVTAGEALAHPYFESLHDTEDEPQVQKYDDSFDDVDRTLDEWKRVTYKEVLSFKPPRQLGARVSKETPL
Nature of the assay: Percentage p38-gamma activity remaining in the presence of 2uM inhibitor.

The target in assay [8] is Ribosomal protein S6 kinase alpha-1 (Homo sapiens) (UniProt Q15418). Nature of the assay: Percentage RSK1 activity remaining in the presence of 2uM inhibitor. The settings on record: filed as antagonist.
Sequence of Ribosomal protein S6 kinase alpha-1 (Homo sapiens) (Q15418 whole entry): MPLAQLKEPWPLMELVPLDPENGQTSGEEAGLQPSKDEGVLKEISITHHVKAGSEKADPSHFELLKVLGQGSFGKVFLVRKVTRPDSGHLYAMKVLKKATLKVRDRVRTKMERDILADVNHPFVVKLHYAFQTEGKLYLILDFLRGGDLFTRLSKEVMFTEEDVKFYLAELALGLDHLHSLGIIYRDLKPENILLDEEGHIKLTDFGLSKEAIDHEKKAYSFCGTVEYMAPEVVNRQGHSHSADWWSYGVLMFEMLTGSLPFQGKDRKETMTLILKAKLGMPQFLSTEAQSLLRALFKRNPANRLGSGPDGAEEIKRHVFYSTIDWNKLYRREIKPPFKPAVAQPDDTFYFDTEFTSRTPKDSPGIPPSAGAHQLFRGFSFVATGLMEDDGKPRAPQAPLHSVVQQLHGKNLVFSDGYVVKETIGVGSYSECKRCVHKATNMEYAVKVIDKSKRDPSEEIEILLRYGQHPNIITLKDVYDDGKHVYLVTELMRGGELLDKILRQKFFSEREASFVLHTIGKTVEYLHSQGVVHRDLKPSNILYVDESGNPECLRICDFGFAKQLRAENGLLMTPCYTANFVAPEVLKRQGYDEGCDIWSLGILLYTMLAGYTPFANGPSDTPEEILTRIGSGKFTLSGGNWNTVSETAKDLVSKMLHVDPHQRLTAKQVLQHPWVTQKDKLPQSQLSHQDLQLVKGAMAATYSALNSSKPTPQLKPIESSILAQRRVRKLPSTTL
Assay [9] deals with Serine/threonine-protein kinase Chk2 (Homo sapiens) (UniProt O96017). The assay can be described thus: Percentage CHK2 activity remaining in the presence of 2uM inhibitor.
Sequence of Serine/threonine-protein kinase Chk2 (Homo sapiens) (O96017 whole entry): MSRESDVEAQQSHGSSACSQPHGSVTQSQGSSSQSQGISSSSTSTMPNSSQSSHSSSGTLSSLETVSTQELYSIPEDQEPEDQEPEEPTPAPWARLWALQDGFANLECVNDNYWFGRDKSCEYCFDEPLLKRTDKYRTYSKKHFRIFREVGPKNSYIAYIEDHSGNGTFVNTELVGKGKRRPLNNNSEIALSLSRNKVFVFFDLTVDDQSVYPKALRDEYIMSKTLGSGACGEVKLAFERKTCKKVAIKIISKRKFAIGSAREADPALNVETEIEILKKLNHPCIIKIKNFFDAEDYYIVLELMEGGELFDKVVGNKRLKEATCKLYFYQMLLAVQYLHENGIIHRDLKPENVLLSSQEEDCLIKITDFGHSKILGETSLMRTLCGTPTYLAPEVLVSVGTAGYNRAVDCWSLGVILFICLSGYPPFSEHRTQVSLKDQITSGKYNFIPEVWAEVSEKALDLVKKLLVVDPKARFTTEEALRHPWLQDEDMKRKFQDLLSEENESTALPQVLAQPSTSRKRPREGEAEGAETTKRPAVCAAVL

Sequence of Tyrosine-protein kinase CSK (P41240 2-450 limits assumed): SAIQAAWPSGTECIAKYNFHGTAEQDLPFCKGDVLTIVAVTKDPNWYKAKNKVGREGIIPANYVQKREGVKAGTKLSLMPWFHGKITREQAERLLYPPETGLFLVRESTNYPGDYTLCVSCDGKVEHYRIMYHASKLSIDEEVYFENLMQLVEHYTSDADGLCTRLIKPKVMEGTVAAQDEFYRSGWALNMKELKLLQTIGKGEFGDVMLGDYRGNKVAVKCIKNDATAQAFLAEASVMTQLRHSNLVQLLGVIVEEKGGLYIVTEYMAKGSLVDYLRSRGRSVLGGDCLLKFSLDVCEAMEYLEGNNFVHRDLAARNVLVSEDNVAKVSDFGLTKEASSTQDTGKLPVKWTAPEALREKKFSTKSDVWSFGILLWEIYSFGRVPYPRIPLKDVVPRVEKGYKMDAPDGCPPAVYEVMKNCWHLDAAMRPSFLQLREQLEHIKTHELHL
Sequence of Homeodomain-interacting protein kinase 2 (Homo sapiens) (Q9H2X6 whole entry, looked up): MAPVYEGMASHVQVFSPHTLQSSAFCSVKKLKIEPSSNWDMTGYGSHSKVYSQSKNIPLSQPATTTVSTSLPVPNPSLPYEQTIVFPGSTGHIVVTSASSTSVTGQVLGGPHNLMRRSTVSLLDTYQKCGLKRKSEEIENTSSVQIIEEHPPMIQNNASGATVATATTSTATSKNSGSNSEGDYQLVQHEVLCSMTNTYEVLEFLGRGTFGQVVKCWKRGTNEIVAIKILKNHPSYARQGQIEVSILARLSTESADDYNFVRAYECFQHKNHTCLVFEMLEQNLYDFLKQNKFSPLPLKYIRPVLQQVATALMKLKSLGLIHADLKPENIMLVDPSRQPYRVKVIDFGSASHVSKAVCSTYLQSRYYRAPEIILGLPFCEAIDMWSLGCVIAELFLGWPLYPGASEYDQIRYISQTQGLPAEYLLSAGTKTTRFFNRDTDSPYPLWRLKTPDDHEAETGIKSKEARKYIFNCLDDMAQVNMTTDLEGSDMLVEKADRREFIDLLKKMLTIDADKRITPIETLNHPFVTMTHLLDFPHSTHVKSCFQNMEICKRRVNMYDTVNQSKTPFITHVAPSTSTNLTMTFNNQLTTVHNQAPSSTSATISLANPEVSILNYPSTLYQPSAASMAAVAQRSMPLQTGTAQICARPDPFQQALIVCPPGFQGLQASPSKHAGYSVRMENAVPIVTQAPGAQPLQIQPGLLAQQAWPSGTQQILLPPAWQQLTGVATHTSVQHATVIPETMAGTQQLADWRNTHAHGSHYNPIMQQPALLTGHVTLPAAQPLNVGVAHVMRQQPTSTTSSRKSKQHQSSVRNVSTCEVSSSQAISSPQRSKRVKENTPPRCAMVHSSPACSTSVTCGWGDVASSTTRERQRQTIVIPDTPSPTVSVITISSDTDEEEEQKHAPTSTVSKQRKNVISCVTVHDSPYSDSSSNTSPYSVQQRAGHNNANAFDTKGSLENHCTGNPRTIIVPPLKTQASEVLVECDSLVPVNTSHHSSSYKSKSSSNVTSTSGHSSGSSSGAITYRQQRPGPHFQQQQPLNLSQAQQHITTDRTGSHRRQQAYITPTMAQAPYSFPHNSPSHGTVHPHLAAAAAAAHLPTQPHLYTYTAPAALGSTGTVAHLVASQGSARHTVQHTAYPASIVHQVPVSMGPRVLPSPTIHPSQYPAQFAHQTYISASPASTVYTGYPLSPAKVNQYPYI

Regarding `Cc1ccc(-c2c(C(=O)CF)n(CCCO)c3ncnc(N)c23)cc1`, the Activity in assay [1] amounted to 55%; in assay [2] it was 79%; in assay [3], 107%; in assay [4], 93%; in assay [5] it was 58%.

Turning to `Cn1cc(C2=C(c3ccc(Cl)cc3Cl)C(=O)NC2=O)c2ccccc21`, the Activity was 98% in [6], 84% in [7], 50% in assay [8] and 93% in [9].

These data come from ChEMBL document CHEMBL1150976, “The selectivity of protein kinase inhibitors: a further update” (Biochem J, 2007).
